Laboratory results: patent publication US20240368174A1, “Antiviral Heterocyclic Compounds” (Enanta Pharmaceuticals, Inc., priority 2023, published 2024)

Experiments:
[1] = tested on: HMPV clinical isolate A2 strain TN 94-49; assay: HMPV antiviral assay, Method 2 (LLC-MK2 cells with CP-100-356, ATP-Lite); format: cell-based; conditions: human metapneumovirus
In short: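 LLC-MK2 rhesus kidney cells (5,000/well) infected in suspension with HMPV A2 TN 94-49 at MOI 0.16, in serum-free medium with final 2 μg/mL TPCK-trypsin and 2 μM CP-100-356. Compounds tested in duplicate from 200 nM, 2.5-fold, 10 points; 7 days at 37 °C. Cell health by ATP-Lite luminescence; EC50 by four-parameter fit.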

[2] = tested on: genotype A, “Long” strain RSV; assay: RSV-A assay (CPE, ATPlite readout in Hep-2 cells); format: cell-based, Human respiratory syncytial virus; conditions: human respiratory syncytial virus, activity class
In short: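 ATPlite luminescence (cellular ATP) served as the measure of cell health after 5 days of infection. Hep-2 cells at 8,000 per well received duplicate 2-fold compound dilutions plus virus at MOI 0.1, and EC50 was calculated from CPE protection.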

[3] = 168 h, hMPV A2 TN/94-49, LLC-MK2 cells with 4 μM CP-100-356, 7 days, ATP-Lite
[4] = hMPV A2 TN/94-49, LLC-MK2 cells with CP-100-356, Method 2

Row | Compound | EC50 [1, 3] [nM] | EC50 [2] [nM] | EC50 [1, 4] [nM]
1 | COc1nccc(-c2nc([C@@](O)(CNC(=O)c3cc(OC)c4nc(C5CC5)oc4c3)C3CC3)cc3c2OC[C@]3(C)C(N)=O)c1Cl [Example 745] | < 200 | < 200 | 
2 | COc1cc(C(=O)NC[C@](O)(c2cc3c(c(-n4ccc5cc(F)ccc54)n2)OC[C@]3(C)C(N)=O)C(F)(F)F)cc2cn(C3CC3)nc12 [Example 852] | < 200 | < 200 | 
3 | COc1cc(C(=O)NC[C@](O)(c2cc3c(c(-c4cc(C(F)(F)F)ncc4F)n2)OC[C@]3(C)C(N)=O)C2(F)CC2)cc2oc(C3CC3)nc12 [Example 670] | < 200 | < 200 | 
4 | COc1cc(C(=O)NC[C@](O)(c2cc3c(c(-n4ncc5c(F)cccc54)n2)OC[C@]3(C)C(N)=O)C2CC2)cc2oc(C3CC3)nc12 [Example 622] | < 200 | < 200 | 
5 | COc1cc(C(=O)NC[C@](O)(c2cc3c(c(-c4ccnc(C(F)(F)F)c4Cl)n2)OC[C@]3(C)C(N)=O)C(F)(F)F)cc2oc(C3CC3)nc12 [Example 536] |  | < 200 | < 200
6 | COc1cc(C(=O)NC[C@](O)(c2cc3c(c(-n4ccc5c(F)cccc54)n2)OC[C@]3(C)C(N)=O)C(F)(F)F)cc2cn(C3CC3)nc12 [Example 851] | < 200 | < 200 | 
7 | COc1cc(C(=O)N(C)C[C@](O)(c2cc3c(c(-c4ccc(F)c(Cl)c4)n2)OC[C@@]3(C(N)=O)C(F)F)C2CC2)cc2cn(C3CC3)nc12 [Example 351] |  | > 200 | > 200
8 | COC1=CC(C(=O)NC[C@](O)(c2cc3c(c(-c4ccnc(C(F)(F)F)c4F)n2)OC[C@]3(C)C(N)=O)C2CC2)=CC2OC(C3CC3)=NC12 (stereo partly drawn) [Example 801] | < 200 | < 200 | 
9 | COc1nccc(-c2nc([C@@](O)(CNC(=O)c3cc(OC)c4nn(C5(F)CC5)cc4c3)C(F)(F)F)cc3c2OC[C@]3(C)C(N)=O)c1Cl [Example 543] |  | < 200 | < 200
10 | COc1nccc(-c2nc([C@@](O)(CNC(=O)c3cc(OC4CC4)c4nn(C5CC5)cc4c3)C3CC3)cc3c2OC[C@]3(C)C(N)=O)c1Cl [Example 585] |  | < 200 | < 200
11 | COc1cc(C(=O)NC[C@](O)(c2cc3c(c(-c4ccnc(C(F)(F)F)c4Cl)n2)OC[C@]3(C)C(N)=O)C2CC2)cc2oc(C3CC3)nc12 [Example 762] | < 200 | < 200 | 
12 | COc1cc(C(=O)NC[C@](O)(c2cc3c(c(-n4ccc5c(OC(F)F)cccc54)n2)OC[C@]3(C)C(N)=O)C2CC2)cc2cn(C3CC3)nc12 [Example 864] | < 200 | < 200 | 
13 | COc1cc(C(=O)NC[C@](O)(c2cc3c(c(-c4cc(C(F)(F)F)ncc4F)n2)OC[C@]3(C)C(N)=O)C2CC2)cc2cc(C3CC3)nn12 [Example 661] | < 200 | < 200 | 
14 | COc1cc(C(=O)NC[C@](O)(c2cc3c(c(-c4cc(C)ncc4F)n2)OC[C@]3(C)C(N)=O)C2CC2)cc2cn(C3CC3)nc12 [Example 412] |  | < 200 | < 200
15 | COc1cc(C(=O)NC[C@](O)(c2cc3c(c(-n4ccc5c(F)cccc54)n2)OC[C@]3(C)C(N)=O)C2CC2)cc2oc(C3CC3)nc12 [Example 778] | < 200 | < 200 | 
16 | C[C@]1(C(N)=O)COc2c1cc([C@@](O)(CNC(=O)c1cc(OC3CC3)c3ncc(Cl)cc3c1)C1CC1)nc2-c1ccc2c(c1)OC(F)(F)O2 [Example 108] |  | < 200 | < 200
17 | COc1cc(C(=O)NC[C@](O)(c2cc3c(c(-c4cc(C(F)(F)F)ncc4F)n2)OC[C@]3(C)C(N)=O)C2CC2)cc2cn(C3(F)CC3)nc12 [Example 348] |  | < 200 | < 200
18 | COc1cc(C(=O)NC[C@](O)(c2cc3c(c(-c4ccnc(C(F)F)c4Cl)n2)OC[C@]3(C)C(N)=O)C2CC2)cc2oc(C(F)F)nc12 [Example 542] |  | < 200 | < 200
19 | COc1cc(C(=O)NC[C@](O)(c2cc3c(c(-c4ccnc(C(F)(F)F)c4F)n2)OC[C@]3(C)C(N)=O)C2CC2)cc2cn(C3(F)CC3)nc12 [Example 800] | < 200 | < 200 | 
20 | COc1cc(C(=O)NC[C@](O)(c2cc3c(c(-c4cc(F)c(F)cc4F)n2)OC[C@]3(C)C(N)=O)C2CC2)ccc1OC[C@@H](C)O [Example 125] |  | < 200 | > 200
21 | COc1cc(C(=O)NC[C@](O)(c2cc3c(c(-n4ncc5c(F)cccc54)n2)OC[C@]3(C)C(N)=O)C2CC2)cc2cn(C3(F)CC3)nc12 [Example 613] |  | < 200 | < 200

The next lines start with the values.

Row | EC50 [1, 3] [nM] | EC50 [2] [nM] | EC50 [1, 4] [nM] | Compound
22 |  | < 200 | < 200 | COc1cc(C(=O)NC[C@@](O)(c2cccc(F)c2)c2cc3c(c(-c4ccnc(F)c4Cl)n2)OC[C@]3(C)C(N)=O)cc2cn(C3CC3)nc12 [Example 407]
23 |  | < 200 | > 200 | C[C@]1(C(N)=O)COc2c1cc([C@@](O)(CNC(=O)c1cc(Cl)c3nn(C(F)F)cc3c1)c1ccccc1)nc2-c1cc(Cl)c(F)cc1F [Example 102]
24 |  | < 200 | < 200 | COc1cc(C(=O)NC[C@@](O)(c2cccc(F)c2)c2cc3c(c(-c4cc(C(F)(F)F)ncc4F)n2)OC[C@]3(C)C(N)=O)cc2cn(C3CC3)nc12 [Example 408]
25 |  | > 200 | > 200 | COc1cc(C(=O)NC[C@@](O)(CC2CC2)c2cc3c(c(-c4cc(Cl)c(F)cc4F)n2)OC[C@]3(C)C(N)=O)cc2cn(C3CC3)nc12 [Example 517]
26 | < 200 | < 200 |  | COc1cc(C(=O)NC[C@](O)(c2cc3c(c(-c4ccnc(C(F)F)c4Cl)n2)OC[C@]3(C)C(N)=O)C2CC2)cc2cn(C(F)F)nc12 [Example 785]
27 |  | < 200 | < 200 | COc1cc(C(=O)NC[C@](O)(c2cc3c(c(-c4cc(F)c(F)cc4F)n2)OC[C@]3(C)C(N)=O)C2CC(F)(F)C2)cc2cn(C3(F)CC3)nc12 [Example 123]
28 |  | < 200 | < 200 | COc1cc(C(=O)NC[C@](O)(c2cc3c(c(-c4cc(C(F)(F)F)ncc4F)n2)OC[C@]3(C)C(N)=O)C2CC2)cc2cn(C(F)F)nc12 [Example 352]
29 | < 200 | < 200 |  | COc1cc(C(=O)NC[C@](O)(c2cc3c(c(-n4ccc5c(F)cccc54)n2)OC[C@]3(C)C(N)=O)C2(F)CC2)cc2cn(C(F)F)nc12 [Example 688]
30 | < 200 | < 200 |  | COc1cc(C(=O)NC[C@](O)(c2cc3c(c(-n4ccc5c(F)cccc54)n2)OC[C@]3(C)C(N)=O)C2CC2)cc2cn(C(F)F)nc12 [Example 776]
31 |  | < 200 | > 200 | COc1cc(C(=O)NC[C@@](O)(CC#N)c2cc3c(c(-c4cc(Cl)c(F)cc4F)n2)OC[C@]3(C)C(N)=O)cc2cn(C3CC3)nc12 [Example 240]
32 | < 200 | < 200 |  | COc1cc(C(=O)NC[C@](O)(c2cc3c(c(-c4ccnc(C(F)(F)F)c4Cl)n2)OC[C@]3(C)C(N)=O)C2CC2)cc2cn(C(F)F)nc12 [Example 758]
33 |  | < 200 | > 200 | COc1cc(C(=O)NC[C@@](O)(c2cccc(F)c2)c2cc3c(c(-c4cc(F)cnc4Cl)n2)OC[C@]3(C)C(N)=O)cc2cn(C3(F)CC3)nc12 [Example 403]
34 |  | < 200 | < 200 | COc1cc(C(=O)NC[C@@](O)(c2ccccc2)c2cc3c(c(-c4ccnc(F)c4Cl)n2)OC[C@]3(C)C(N)=O)cc2cn(C3(F)CC3)nc12 [Example 344]
35 | < 200 | < 200 |  | COc1cc(C(=O)NC[C@](O)(c2cc3c(c(-c4cncc(OC(F)F)c4Cl)n2)OC[C@]3(C)C(N)=O)C2CC2)cc2cn(C(F)F)nc12 [Example 742]
36 | < 200 | < 200 |  | COc1cc(C(=O)NC[C@@](O)(c2ccccc2)c2cc3c(c(-n4ncc5c(F)cccc54)n2)OC[C@]3(C)C(N)=O)cc2cn(C3(F)CC3)nc12 [Example 629]
37 |  | < 200 | < 200 | COc1cc(C(=O)NC[C@](O)(c2cc3c(c(-c4cc(C(F)(F)F)c(F)cc4F)n2)OC[C@]3(C)C(N)=O)C2CC2)cc2cn(C(F)F)nc12 [Example 310]
38 |  | < 200 | < 200 | COc1cc(C(=O)NC[C@](O)(c2cc3c(c(-c4ccnc(C(F)F)c4Cl)n2)OC[C@]3(C)C(N)=O)C(F)(F)F)cc2cn(C3(F)CC3)nc12 [Example 548]
39 | < 200 | < 200 |  | COc1cc(C(=O)NC[C@](O)(c2cc3c(c(-c4ccnc(C(F)F)c4Cl)n2)OC[C@]3(C)C(N)=O)C2CC2)cc2cn(C3(F)CC3)nc12 [Example 786]
40 | < 200 | < 200 |  | COc1cc(C(=O)NC[C@@](O)(c2ccccc2)c2cc3c(c(-n4ncc5c(F)cccc54)n2)OC[C@]3(C)C(N)=O)cc2cc(C3CC3)nn12 [Example 630]
41 |  | > 200 | > 200 | CNCC1([C@](O)(CNC(=O)c2cc(OC)c3nn(C4CC4)cc3c2)c2cc3c(c(-c4cc(Cl)c(F)cc4F)n2)OC[C@]3(C)C(N)=O)CC1 [Example 211]
42 |  | < 200 | < 200 | COc1cc(C(=O)NC[C@](O)(c2cc3c(c(-c4ccc(F)c(Cl)c4Cl)n2)OC[C@]3(C)C(N)=O)C2CC2)cc2cn(C(F)F)nc12 [Example 323]
43 | < 200 | < 200 |  | COc1cc(C(=O)NC[C@](O)(c2cc3c(c(-c4ccnc(C(F)F)c4Cl)n2)OC[C@]3(C)C(N)=O)C(F)(F)F)cc2cn(C3CC3)nc12 [Example 795]
44 |  | > 200 | > 200 | COc1cc(C(=O)NC[C@](O)(c2cccc(F)c2)c2cc3c(c(-c4cc(F)cnc4Cl)n2)OC[C@]3(C)C(N)=O)cc2cn(C3(F)CC3)nc12 [Example 404]
45 |  | < 200 | < 200 | COc1cc(C(=O)NC[C@](O)(c2cc3c(c(-c4cc(Cl)c(F)cc4F)n2)OC[C@]3(C)C(N)=O)C(C)C)cc2cn(C3CC3)nc12 [Example 476]
